# Where two headings read alike, the source gives them in different places.
# Legend:
# SF3b complexes = molecular target: T1, SF3b complexes (Homo sapiens, UniProt O75533+Q7RTV0); test: Scintillation proximity assay (SPA) with [3H]-labelled pladienolide probe; assay type: binding; conditions: SF3B1 (WT); geometric mean; read-out: SPA-ATS GMean IC50 (nM) SF3B1 (WT)
# T1 construct: endogenous in cells; host or cells: Nuclear extracts; A HeLa S3 extract preparation is described for the in vitro splicing assay
# Summary of the method: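 SF3b complexes captured from nuclear extracts on anti-SF3B1 antibody SPA beads; test compounds pre-incubated 30 min before 2.5 nM [3H]-pladienolide probe added, then 30 min incubation. Bound probe read by scintillation; values from non-linear regression of concentration–response curves.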
# [1] = test system: Ad2 variant pre-mRNAs spliced in HeLa S3 nuclear extracts; test: In vitro splicing assay (IVS), RT-qPCR of spliced product; assay type: biochemical; conditions: for IC50: geometric mean; for Ratio Ad2.1/2.2: ratio of IVS IC50 Ad2.1 to Ad2.2
# Summary of the method: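 Read-out is one-step TaqMan RT-qPCR of spliced Ad2 mRNA with Ftz as reference, normalized to DMSO and fit by non-linear regression. Reactions held HeLa S3 nuclear extract, 2 ng Ad2-derived pre-mRNA and test compound, with 15 min preincubation. Splicing was started with ATP-containing activation buffer and run 90 min at 30 °C.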
# [2] = test system: NCI-H1568 cells (high MCL1); test: Cell proliferation and viability, CellTiter-Glo, 72 hours; assay type: cell-based; conditions: for GI50: geometric mean
# Summary of the method: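 ATP luminescence (CellTiter-Glo) was measured 72 h after treatment with compound at 10 μM–100 pM (11 points, half-log) in 0.1% DMSO. The Panc line was grown in RPMI-1640 plus insulin and 15% FBS, the other in 10% FBS. Data were normalised to time zero and vehicle controls, where −100% is cidal and 0% static.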
# [3] = Ad2.1 pre-mRNA substrate, read-out: qPCR-IVS-ATS GMean IC50 (nM) Ad2.1
# [4] = Ad2.2 pre-mRNA substrate, read-out: qPCR-IVS-ATS GMean IC50 (nM) Ad2.2
# [5] = NCI-H1568, read-out: CTGlo-ATS GMean GI50 (nM) 72 h NCIH1568.1, NCIH1568.1 cells, 72 h
# [6] = NCIH1568.1 cells, 72 h, −100% cidal, 0% static, 100% maximal growth
# [7] = NCI-H1568, 72 h, read-out: CTGlo-ATS GMean GI50 (nM) 72 h NCIH1568.1, NCIH1568.1 cells, 72 h
# [8] = 72 h, NCIH1568.1, -100% = cidal, 0% = static, 100% = uninhibited growth
# [9] = NCI-H1568, read-out: CTGlo-ATS GMean GI50 (nM) 72 h NCIH1568.1, 72 h, NCIH1568.1
compound,measurement,setting,value
C/C(=C\c1cc(F)cc(N(C)C2CCN(C(=O)Nc3ccccc3)CC2)c1)[C@H]1OC(=O)C[C@H](O)CC[C@H](C)[C@@H](OC(=O)N2CCN(C)CC2)/C=C/[C@@H]1C [Compound 193],IC50,SF3b complexes,127 nM
same,IC50,[1]; [3],47.8 nM
same,IC50,[1]; [4],19.6 nM
same,GI50,[2]; [5],17.2 nM
same,CTGlo-ATS Mean MinResponse % 72 h NCIH1568.1,[2]; [6],−89.438%
C/C(=C\c1cc(F)cc(N2CCCN(CC3CC3)C2=O)c1)[C@H]1OC(=O)C[C@H](O)CC[C@H](C)[C@@H](OC(=O)N2CCN(C)CC2)/C=C/[C@@H]1C [Compound 80],IC50,SF3b complexes,1.59 nM
same,IC50,[1]; [3],6.64 nM
same,IC50,[1]; [4],8.57 nM
same,GI50,[2]; [7],2.68 nM
same,CTGlo-ATS Mean MinResponse % 72 h NCIH1568.1,[2]; [6],−69.196%
"COc1ccc(CNC(=O)O[C@H]2/C=C/C(C)C(/C(C)=C/c3cc(F)cc(N4CCN(C(=O)Cn5cccn5)CC4)c3)OC(=O)CC(O)CC[C@@H]2C)cc1 (stereo in doubt) [Compound 226, [(2R,3R,4E,6R,7S,10S)-2-[(E)-1-[3-fluoro-5-[4-(2-pyrazol-1-ylacetyl)piperazin-1-yl]phenyl]prop-1-en-2-yl]-10-hydroxy-3,7-dimethyl-12-oxo-1-oxacyclododec-4-en-6-yl] N-[(4-methoxyphenyl)methyl]carbamate]",IC50,SF3b complexes,1.17 nM
same,IC50,[1]; [3],8.74 nM
same,IC50,[1]; [4],102 nM
same,Ratio Ad2.1/2.2,[1],0.086
same,CTGlo-ATS Mean MinResponse % 72 h NCIH1568.1,[2]; [8],−64.963%
same,GI50,[2]; [9],34.7 nM
C/C(=C\c1cc(F)cc(OC2CCN(S(C)(=O)=O)CC2)c1)[C@H]1OC(=O)C[C@H](O)CC[C@H](C)[C@@H](OC(=O)N2CCN(C)CC2)/C=C/[C@@H]1C [Compound 194],IC50,SF3b complexes,10.7 nM
same,IC50,[1]; [3],30.1 nM
same,IC50,[1]; [4],25.9 nM
same,GI50,[2]; [5],6.73 nM
same,CTGlo-ATS Mean MinResponse % 72 h NCIH1568.1,[2]; [6],−75.631%
"C/C(=C\c1cc(F)cc(N2CCN(C(=O)Cn3cccn3)CC2)c1)[C@H]1OC(=O)C[C@H](O)CC[C@H](C)[C@@H](OC(=O)N2CCCN(C)CC2)/C=C/[C@@H]1C [Compound 225, [(2S,3S,4E,6R,7S,10R)-2-[(E)-1-[3-fluoro-5-[4-(2-pyrazol-1-ylacetyl)piperazin-1-yl]phenyl]prop-1-en-2-yl]-10-hydroxy-3,7-dimethyl-12-oxo-1-oxacyclododec-4-en-6-yl] 4-methyl-1,4-diazepane-1-carboxylate]",IC50,SF3b complexes,18.2 nM
same,IC50,[1]; [3],7.56 nM
same,IC50,[1]; [4],22.4 nM
same,Ratio Ad2.1/2.2,[1],0.337
same,CTGlo-ATS Mean MinResponse % 72 h NCIH1568.1,[2]; [8],−73.768%
same,GI50,"[2]; NCI-H1568, 72 h, read-out: CTGlo-ATS GMean GI50 (nM) 72 h NCIH1568.1, 72 h, NCIH1568.1",11 nM
"COCC(=O)N[C@H]1CCN(c2cc(F)cc(/C=C(\C)[C@H]3OC(=O)CC(O)CCC(C)[C@@H](OC(=O)N4CCN(C)CC4)/C=C/[C@@H]3C)c2)C1 (stereo in doubt) [Compound 218, [(2S,3S,4E,6R,7R,10S)-2-[(E)-1-[3-fluoro-5-[(3S)-3-[(2-methoxyacetyl)amino]pyrrolidin-1-yl]phenyl]prop-1-en-2-yl]-10-hydroxy-3,7-dimethyl-12-oxo-1-oxacyclododec-4-en-6-yl] 4-methylpiperazine-1-carboxylate]",IC50,SF3b complexes,2.79 nM
same,IC50,[1]; [3],30.5 nM
same,IC50,[1]; [4],5.62 nM
same,Ratio Ad2.1/2.2,[1],5.425
same,CTGlo-ATS Mean MinResponse % 72 h NCIH1568.1,[2]; [8],−75.420%
same,GI50,[2]; [9],6.2 nM
C/C(=C\c1cc(F)c2nnn(C3CCS(=O)(=O)CC3)c2c1)[C@H]1OC(=O)C[C@H](O)CC[C@H](C)[C@@H](OC(=O)N2CCN(C)CC2)/C=C/[C@@H]1C [Compound 158],IC50,SF3b complexes,13.9 nM
same,IC50,[1]; [3],18.9 nM
same,IC50,[1]; [4],18.2 nM
same,GI50,[2]; [5],6.57 nM
same,CTGlo-ATS Mean MinResponse % 72 h NCIH1568.1,[2]; [6],−87.167%
COCCn1nnc2c(F)cc(/C=C(\C)[C@H]3OC(=O)C[C@H](O)CC[C@H](C)[C@@H](OC(=O)N4CCN(C)CC4)/C=C/[C@@H]3C)cc21 [Compound 159],IC50,SF3b complexes,1.84 nM
same,IC50,[1]; [3],88.3 nM
same,IC50,[1]; [4],10.2 nM
same,GI50,[2]; [5],3.45 nM
same,CTGlo-ATS Mean MinResponse % 72 h NCIH1568.1,[2]; [6],−65.047%
COc1ccc(-n2nnc3c(F)cc(/C=C(\C)[C@H]4OC(=O)C[C@H](O)CC[C@H](C)[C@@H](OC(=O)N5CCN(C)CC5)/C=C/[C@@H]4C)cc32)cc1 [Compound 165],IC50,SF3b complexes,18.7 nM
same,IC50,[1]; [3],29.5 nM
same,IC50,[1]; [4],15.2 nM
same,GI50,[2]; [5],10 nM
same,CTGlo-ATS Mean MinResponse % 72 h NCIH1568.1,[2]; [6],−78.159%
C/C(=C\c1cc(F)c2nnn(C3CCCCC3)c2c1)[C@H]1OC(=O)C[C@H](O)CC[C@H](C)[C@@H](OC(=O)N2CCN(C)CC2)/C=C/[C@@H]1C [Compound 164],IC50,SF3b complexes,3.59 nM
same,IC50,[1]; [3],20.7 nM
same,IC50,[1]; [4],27.9 nM
same,GI50,[2]; [5],1.54 nM
same,CTGlo-ATS Mean MinResponse % 72 h NCIH1568.1,[2]; [6],−87.159%
C/C(=C\c1cc(F)c2nnn([C@H]3CC[C@H](O)CC3)c2c1)[C@H]1OC(=O)C[C@H](O)CC[C@H](C)[C@@H](OC(=O)N2CCN(C)CC2)/C=C/[C@@H]1C [Compound 147],IC50,SF3b complexes,7.3 nM
same,IC50,[1]; [3],9.57 nM
same,IC50,[1]; [4],7.43 nM
same,GI50,[2]; [5],1.56 nM
same,CTGlo-ATS Mean MinResponse % 72 h NCIH1568.1,[2]; [6],−91.884%
C/C(=C\c1cc(F)cc(N(C)C2CCN(C(=O)C(F)(F)F)CC2)c1)[C@H]1OC(=O)C[C@H](O)CC[C@H](C)[C@@H](OC(=O)N2CCN(C)CC2)/C=C/[C@@H]1C [Compound 181],IC50,SF3b complexes,8.2 nM
same,IC50,[1]; [3],19.7 nM
same,IC50,[1]; [4],19.2 nM
same,GI50,[2]; [5],9.74 nM
same,CTGlo-ATS Mean MinResponse % 72 h NCIH1568.1,[2]; [6],−85.226%
COCCn1cnc2c(F)cc(/C=C(\C)[C@H]3OC(=O)C[C@H](O)CC[C@H](C)[C@@H](OC(=O)N4CCN(C)CC4)/C=C/[C@@H]3C)cc21 [Compound 142],IC50,SF3b complexes,1.35 nM
same,IC50,[1]; [3],12.9 nM
same,IC50,[1]; [4],6.99 nM
same,GI50,[2]; [5],2.19 nM
same,CTGlo-ATS Mean MinResponse % 72 h NCIH1568.1,[2]; [6],−69.213%
C/C(=C\c1cc(F)c2nnn(Cc3ccc(Cl)cc3)c2c1)[C@H]1OC(=O)C[C@H](O)CC[C@H](C)[C@@H](OC(=O)N2CCN(C)CC2)/C=C/[C@@H]1C [Compound 145],IC50,SF3b complexes,69.4 nM
same,IC50,[1]; [3],688 nM
same,IC50,[1]; [4],38.1 nM
same,GI50,[2]; [5],25 nM
same,CTGlo-ATS Mean MinResponse % 72 h NCIH1568.1,[2]; [6],−66.236%
C/C(=C\c1cc(F)cc(N(C)CC2CCN(S(C)(=O)=O)CC2)c1)[C@H]1OC(=O)C[C@H](O)CC[C@H](C)[C@@H](OC(=O)N2CCN(C)CC2)/C=C/[C@@H]1C [Compound 187],IC50,SF3b complexes,43.2 nM
same,IC50,[1]; [3],157 nM
same,IC50,[1]; [4],59.6 nM
same,GI50,[2]; [5],65 nM
same,CTGlo-ATS Mean MinResponse % 72 h NCIH1568.1,[2]; [6],−54.197%
CC(=O)N1CCC(n2cnc3c(F)cc(/C=C(\C)[C@H]4OC(=O)C[C@H](O)CC[C@H](C)[C@@H](OC(=O)N5CCN(C)CC5)/C=C/[C@@H]4C)cc32)CC1 [Compound 146],IC50,SF3b complexes,22.7 nM
same,IC50,[1]; [3],11.1 nM
same,IC50,[1]; [4],12.7 nM
same,GI50,[2]; [7],2.79 nM
same,CTGlo-ATS Mean MinResponse % 72 h NCIH1568.1,[2]; [6],−88.975%
COCC(=O)N1CCC(N(C)c2cc(F)cc(/C=C(\C)[C@H]3OC(=O)C[C@H](O)CC[C@H](C)[C@@H](OC(=O)N4CCN(C)CC4)/C=C/[C@@H]3C)c2)CC1 [Compound 179],IC50,SF3b complexes,6.15 nM
same,IC50,[1]; [3],31.4 nM
same,IC50,[1]; [4],14.2 nM
same,GI50,[2]; [5],8.7 nM
same,CTGlo-ATS Mean MinResponse % 72 h NCIH1568.1,[2]; [6],−82.684%
C/C(=C\c1cc(F)cc(N2CCN(C(=O)C3COC3)CC2)c1)[C@H]1OC(=O)C[C@H](O)CC[C@H](C)[C@@H](OC(=O)N2CCN(C)CC2)/C=C/[C@@H]1C [Compound 153],IC50,SF3b complexes,4.83 nM
same,IC50,[1]; [3],14.5 nM
same,IC50,[1]; [4],14.8 nM
same,GI50,[2]; [5],2.34 nM
same,CTGlo-ATS Mean MinResponse % 72 h NCIH1568.1,[2]; [6],−81.206%
"C/C(=C\c1cc(F)cc(N2CCN(C(=O)Cn3cccn3)CC2)c1)[C@H]1OC(=O)C[C@H](O)CC[C@H](C)[C@@H](OC(=O)N2CCN(C)C(C)(C)C2)/C=C/[C@@H]1C [Compound 232, [(2S,3S,4E,6R,7S,10R)-2-[(E)-1-[3-fluoro-5-[4-(2-pyrazol-1-ylacetyl)piperazin-1-yl]phenyl]prop-1-en-2-yl]-10-hydroxy-3,7-dimethyl-12-oxo-1-oxacyclododec-4-en-6-yl] 3,3,4-trimethylpiperazine-1-carboxylate]",IC50,SF3b complexes,5.01 nM
same,IC50,[1]; [3],15.3 nM
same,IC50,[1]; [4],9.5 nM
same,Ratio Ad2.1/2.2,[1],1.613
same,CTGlo-ATS Mean MinResponse % 72 h NCIH1568.1,[2]; [8],−78.974%
same,GI50,[2]; [9],4.67 nM
